The source of these data is patent US9073881B2, “Benzoic acid derivatives” (HOFFMANN-LA ROCHE INC., priority 2011, dated 2015).

A value given as a limit tells only on which side of the number the result lay.

By IC50 is commonly meant the concentration that gives 50% inhibition. The low end stands for greater potency in that assay, the high end for weaker potency in that assay.

For the assay, the target named is Human eIF4E (Homo sapiens (Human), UniProt P06730). Kind of assay: Human eIF4E/4G binding assay (time-resolved fluorescence, HH-eIF4E and biotin-labeled 4G2 peptide). As to conditions: inhibition of binding of His-tagged human eIF4E (aa 28-217) to biotin-labeled 4G2 peptide.
Chain of Human eIF4E (P06730 28-217): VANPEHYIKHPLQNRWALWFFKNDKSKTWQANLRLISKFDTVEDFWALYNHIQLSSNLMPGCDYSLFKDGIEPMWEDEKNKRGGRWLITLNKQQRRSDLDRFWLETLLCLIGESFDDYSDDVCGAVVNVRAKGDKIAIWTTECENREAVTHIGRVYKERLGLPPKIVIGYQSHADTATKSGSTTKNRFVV

Turning to `O=C(O)c1cc(-c2nc(-c3ccc(Cl)c(Cl)c3)cs2)ccc1-c1ccc(F)cc1F` [Example 132, 4-[4-(3,4-Dichloro-phenyl)-thiazol-2-yl]-2′,4′-difluoro-biphenyl-2-carboxylic acid], the IC50 is 5600 nM.

Consider `O=C(O)c1cc(-c2nc(-c3ccc(Cl)c(Cl)c3)cs2)ccc1-c1cc(F)cc(F)c1F` [Example 133, 4-[4-(3,4-Dichloro-phenyl)-thiazol-2-yl]-2′,3′,5′-trifluoro-biphenyl-2-carboxylic acid], for which the IC50 was found to be 1600 nM.

As for `O=C(O)c1cc(-c2nc(-c3ccc(Cl)c(Cl)c3)cs2)ccc1-c1ccc(F)cc1Cl` [Example 134, 2′-Chloro-4-[4-(3,4-dichloro-phenyl)-thiazol-2-yl]-4′-fluoro-biphenyl-2-carboxylic acid], the IC50 worked out at 1400 nM.

In turn, `O=C(O)c1cc(-c2nc(-c3ccc(Cl)c(Cl)c3)cs2)ccc1-c1ccccc1F` [Example 137, 4-[4-(3,4-Dichloro-phenyl)-thiazol-2-yl]-2′-fluoro-biphenyl-2-carboxylic acid] came in with an IC50 of 3600 nM.

In the case of `O=C(O)c1cc(-c2nc(-c3ccc(Cl)c(Cl)c3)cs2)ccc1-c1cccc(F)c1F` [Example 138, 4-[4-(3,4-Dichloro-phenyl)-thiazol-2-yl]-2′,3′-difluoro-biphenyl-2-carboxylic acid], the IC50 came out at 1900 nM.

The molecule `Cc1ccc(F)c(-c2ccc(-c3nc(-c4ccc(Cl)c(Cl)c4)cs3)cc2C(=O)O)c1Cl` [Example 139, 2′-Chloro-4-[4-(3,4-dichloro-phenyl)-thiazol-2-yl]-6′-fluoro-3′-methyl-biphenyl-2-carboxylic acid] displayed an IC50 of 1600 nM.

`Cc1ccccc1-c1ccc(-c2nc(-c3ccc(Cl)c(Cl)c3)cs2)cc1C(=O)O` [Example 141, 4-[4-(3,4-Dichloro-phenyl)-thiazol-2-yl]-2′-methyl-biphenyl-2-carboxylic acid]: the IC50 turned out to be 5900 nM.

As to `Cc1cscc1-c1ccc(-c2nc(-c3ccc(Cl)c(Cl)c3)cs2)cc1C(=O)O` [Example 142, 5-[4-(3,4-Dichloro-phenyl)-thiazol-2-yl]-2-(4-methyl-thiophen-3-yl)-benzoic acid], the IC50 was 4200 nM.

As to `Cc1ccc(Cl)c(-c2ccc(-c3nc(-c4ccc(Cl)c(Cl)c4)cs3)cc2C(=O)O)c1` [Example 144, 2′-Chloro-4-[4-(3,4-dichloro-phenyl)-thiazol-2-yl]-5′-methyl-biphenyl-2-carboxylic acid], the IC50 amounted to 1100 nM.

Consider `O=C(O)c1cc(-c2nc(-c3ccc(Cl)c(Cl)c3)cs2)ccc1-c1ccsc1Cl` [Example 145, 2-(2-Chloro-thiophen-3-yl)-5-[4-(3,4-dichloro-phenyl)-thiazol-2-yl]-benzoic acid], for which the IC50 is 2200 nM.

Consider `O=C(O)c1cc(-c2nc(-c3ccc(Cl)c(Cl)c3)cs2)ccc1-c1sccc1Cl` [Example 146, 2-(3-Chloro-thiophen-2-yl)-5-[4-(3,4-dichloro-phenyl)-thiazol-2-yl]-benzoic acid], for which the IC50 came out at 1700 nM.

In the case of `O=C(O)c1cc(-c2nc(-c3ccc(Cl)c(Cl)c3)cs2)ccc1-c1ccc(Cl)cc1` [Example 147, 4′-Chloro-4-[4-(3,4-dichloro-phenyl)-thiazol-2-yl]-biphenyl-2-carboxylic acid], the IC50 came to 1700 nM.

In turn, `O=C(O)c1cc(-c2nc(-c3ccc(Cl)c(Cl)c3)cs2)ccc1-c1cc(Cl)ccc1Cl` [Example 148, 2′,5′-Dichloro-4-[4-(3,4-dichloro-phenyl)-thiazol-2-yl]-biphenyl-2-carboxylic acid] registered an IC50 of 1700 nM.

In turn, `O=C(O)c1cc(-c2nc(-c3ccc(Cl)c(Cl)c3)cs2)ccc1-c1cc(Cl)cc(Cl)c1Cl` [Example 149, 2′,3′,5′-Trichloro-4-[4-(3,4-dichloro-phenyl)-thiazol-2-yl]-biphenyl-2-carboxylic acid] displayed an IC50 above 80000 nM.

`O=C(O)c1cc(-c2nc(-c3ccc(Cl)c(Cl)c3)cs2)ccc1-c1ccc(Cl)cc1Cl` [Example 150, 2′,4′-Dichloro-4-[4-(3,4-dichloro-phenyl)-thiazol-2-yl]-biphenyl-2-carboxylic acid]: the IC50 was 1400 nM.

Take `O=C(O)c1cc(-c2nc(-c3ccc(Cl)c(Cl)c3)cs2)ccc1-c1ccccc1` [Example 151, 4-[4-(3,4-Dichloro-phenyl)-thiazol-2-yl]-biphenyl-2-carboxylic acid]: the IC50 was determined as 5900 nM.

Regarding `O=C(O)c1cc(-c2nc(-c3ccc(Cl)c(Cl)c3)cs2)ccc1-c1cccc(Cl)c1Cl` [Example 152, 2′,3′-Dichloro-4-[4-(3,4-dichloro-phenyl)-thiazol-2-yl]-biphenyl-2-carboxylic acid], the IC50 is 2100 nM.

Molecule `O=C(O)c1cc(-c2nc(-c3ccc(Cl)c(Cl)c3)cs2)ccc1-c1ccccc1Cl` [Example 153, 2′-Chloro-4-[4-(3,4-dichloro-phenyl)-thiazol-2-yl]-biphenyl-2-carboxylic acid] yielded an IC50 of 2200 nM.
